One experiment deals with T1, human cathepsin F (Homo sapiens, UniProt Q9UBX1).
T1 sequence (Q9UBX1 271-484): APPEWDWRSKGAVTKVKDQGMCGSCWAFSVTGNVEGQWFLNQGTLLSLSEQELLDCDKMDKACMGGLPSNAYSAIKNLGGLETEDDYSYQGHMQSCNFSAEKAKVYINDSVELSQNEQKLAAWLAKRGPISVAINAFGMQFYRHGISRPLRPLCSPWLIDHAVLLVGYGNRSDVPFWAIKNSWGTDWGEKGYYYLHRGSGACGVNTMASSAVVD
The experiment in a line: Cathepsin F assay (hCat F). In kind it is biochemical. The note with it: Z-Phe-Arg-AMC substrate, pH 5.5, 15 min preincubation; read-out: hCat F (IP (nM)). Summed up:
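AMC release from Z-Phe-Arg-AMC, added at 8 μM, was monitored fluorometrically (360/460 nm) for 20 min after 10 nM enzyme and compound had been preincubated 15 min at room temperature. Buffer: MES 50 mM pH 5.5, EDTA and DTT 2.5 mM each, 10% DMSO. Compound DMSO dilutions spanned 500–0.025 μM (3-fold). Dose-response fitting gave % inhibition.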

For another experiment, the target named is human cathepsin K (UniProt P43236). The experiment can be described thus: Cathepsin K Assay (hrbCat K). It is filed as biochemical. As to conditions: Z-Leu-Arg-AMC substrate, pH 5.5, 15 min preincubation; read-out: hrbCat K (IP (nM)). Summed up: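 Human cathepsin K (0.4 nM) was preincubated 15 min at room temperature with compound in 50 mM MES pH 5.5, 2.5 mM EDTA, 2.5 mM DTT and 10% DMSO. Inhibition was fitted to a dose-response model.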

Consider `CN(c1nc([C@@H]2CCCC[C@H]2C(=O)NC2(C#N)CC2)c(-c2ccc(N3CCS(=O)(=O)CC3)cc2)s1)S(=O)(=O)c1ccccc1` [Example 201, (1R,2R)-N-(1-cyanocyclopropyl)-2-(5-(4-(1,1-dioxidothiomorpho-lino)phenyl)-2-(N-methylphenylsulfon-amido)thiazol-4-yl)cyclohexane-carboxamide], for which the IC50 at human cathepsin F was found to be 712 nM; at human cathepsin K, 1.2 nM.

As to `C[C@@H](C#N)NC(=O)[C@@H]1C[C@@H](F)CC[C@H]1c1nc(C(C)(C)C)oc1-c1ccc(N2CCS(=N)(=O)CC2)cc1` [Example 171, (1R,2R,5S)-2-(2-(tert-butyl)-5-(4-(1-imino-1-oxidothiomorpholino)phenyl)oxazol-4-yl)-N-((S)-1-cyanoethyl)-5-fluorocyclohexane-carboxamide], the figures for the IC50 on human cathepsin F and at human cathepsin K were 7420 nM and 4.8 nM, respectively.

With `CC(C)(C)c1nc([C@@H]2CC[C@H](F)C[C@H]2C(=O)NC2(C#N)CC2)c(-c2ccc(N3CCS(=O)(=O)CC3)cc2)o1` [Example 168, (1R,2R,5S)-2-(2-(tert-butyl)-5-(4-(1,1-dioxidothiomorpho-lino)phenyl)oxazol-4-yl)-N-(1-cyanocyclopropyl)-5-fluorocyclohexane-carboxamide], the values for the IC50 on human cathepsin F and on human cathepsin K were ≥ 10000 nM and 3.3 nM, respectively.

On to `CS(=O)(=O)N1CCN(C(=O)c2ccc(-c3sc(-c4ccc(F)cc4)nc3[C@@H]3CCC(F)(F)C[C@H]3C(=O)NC3(C#N)CC3)cc2)CC1` [Example 29, (1R,2R)-N-(1-cyanocyclopropyl)-5,5-difluoro-2-(2-(4-fluorophenyl)-5-(4-(4-(methylsulfonyl)piperazine-1-carbonyl)phenyl)thi-azol-4-yl)cyclohexane-carboxamide], for which the values for the IC50 at human cathepsin F and at human cathepsin K were 57 nM and 1.9 nM, respectively.

With `Cc1ccc(-c2nc([C@@H]3CC[C@H](F)C[C@H]3C(=O)NC3(C#N)CC3)c(-c3ccc(N4CCC(C)(O)CC4)cc3)s2)nn1` [Example 222, (1R,2R,5S)-N-(1-cyanocyclopropyl)-5-fluoro-2-(5-(4-(4-hydroxy-4-methylpiperidin-1-yl)phenyl)-2-(6-methylpyridazin-3-yl)thiazol-4-yl)cyclohexane-carboxamide], the IC50 was 2050 nM at human cathepsin F and 6.2 nM on human cathepsin K.

In the case of `N#CC1(NC(=O)[C@@H]2CCCC[C@H]2c2nc(NCC(F)(F)F)sc2-c2ccc(N3CCS(=O)(=O)CC3)cc2)CC1` [Example 156, (1R,2R)-N-(1-cyanocyclopropyl)-2-(5-(4-(1,1-dioxidothiomorpho-lino)phenyl)-2-((2,2,2-trifluoroethyl)amino)thiazol-4-yl)cyclohexane-carboxamide], the figures for the IC50 at human cathepsin F and at human cathepsin K were ≥ 10000 nM and 8.8 nM, respectively.

As to `C[C@@H](C#N)NC(=O)[C@@H]1C[C@@H](F)CC[C@H]1c1nc(C2CC(F)(F)C2)sc1-c1ccc(N2CCS(=O)(=O)CC2)cc1` [Example 212, (1R,2R,5S)-N-((S)-1-cyanoethyl)-2-(2-(3,3-difluorocyclobutyl)-5-(4-(1,1-dioxidothiomorpho-lino)phenyl)thiazol-4-yl)-5-fluorocyclohexane-carboxamide], the IC50 at human cathepsin F was 6700 nM; on human cathepsin K it was 4.2 nM.

For `N#CC1(NC(=O)[C@@H]2CCCC[C@H]2c2nc(-c3cncc(F)c3)sc2-c2ccc(N3CCS(=N)(=O)CC3)cc2)CC1` [Example 135, (1R,2R)-N-(1-cyanocyclopropyl)-2-(2-(5-fluoropyridin-3-yl)-5-(4-(1-imino-1-oxidothiomorpholino)phenyl)thiazol-4-yl)cyclohexane-carboxamide], the figures for the IC50 on human cathepsin F and at human cathepsin K were 1560 nM and 1.2 nM, respectively.

On to `N#CC1(NC(=O)[C@@H]2CCCC[C@H]2c2nc(-c3ccc4c(c3)OCCO4)sc2-c2ccc(N3CCS(=O)(=O)CC3)cc2)CC1` [Example 120, (1R,2R)-N-(1-cyanocyclopropyl)-2-(2-(2,3-dihydrobenzo[b][1,4]dioxin-6-yl)-5-(4-(1,1-dioxidothiomorpho-lino)phenyl)thiazol-4-yl)cyclohexane-carboxamide], for which the values for the IC50 on human cathepsin F and at human cathepsin K were 1110 nM and 1.4 nM, respectively.

With `CC(C)(C)c1ccc(-c2nc([C@@H]3CCCC[C@H]3C(=O)NC3(C#N)CC3)c(-c3ccc(N4CCS(=O)(=O)CC4)cc3)s2)cn1` [Example 92, (1R,2R)-2-(2-(6-(tert-butyl)pyridin-3-yl)-5-(4-(1,1-dioxidothiomorpho-lino)phenyl)thiazol-4-yl)-N-(1-cyanocyclopropyl) cyclohexanecarbox-amide], the IC50 at human cathepsin F is 3330 nM; on human cathepsin K, 3 nM.

As to `N#CC1(NC(=O)[C@@H]2CC3CC3C[C@H]2c2nc(-c3cncc(Cl)c3)sc2-c2ccc(N3CCS(=O)(=O)CC3)cc2)CC1` (single isomer, unassigned) [Example 113], the IC50 at human cathepsin F stood at 482 nM; on human cathepsin K it was 0.8 nM.

As for `N#CC1(NC(=O)[C@@H]2CCCC[C@H]2c2nc(Nc3ccc(F)cc3)sc2-c2ccc(N3CCS(=O)(=O)CC3)cc2)CC1` [Example 180, (1R,2R)-N-(1-cyanocyclopropyl)-2-(5-(4-(1,1-dioxidothiomorpho-lino)phenyl)-2-((4-fluorophenyl)amino)thiazol-4-yl)cyclohexane-carboxamide], the IC50 on human cathepsin F worked out at 1000 nM; on human cathepsin K, 43.3 nM.

Consider `N#Cc1cc(F)ccc1-c1nc([C@@H]2CCCC[C@H]2C(=O)NC2(C#N)CC2)c(-c2ccc(N3CCS(=O)(=O)CC3)cc2)s1` [Example 61, (1R,2R)-2-(2-(2-cyano-4-fluorophenyl)-5-(4-(1,1-dioxidothiomorpho-lino)phenyl)thiazol-4-yl)-N-(1-cyanocyclopropyl) cyclohexanecarbox-amide], for which the IC50 at human cathepsin F is 7650 nM; on human cathepsin K, 5.9 nM.

For `Cc1cnc(-c2nc([C@@H]3CCCC[C@H]3C(=O)NC3(C#N)CC3)c(-c3ccc(N4CCS(=O)(=O)CC4)cc3)s2)nc1` [Example 82, (1R,2R)-N-(1-cyanocyclopropyl)-2-(5-(4-(1,1-dioxidothiomorpho-lino)phenyl)-2-(5-methylpyrimidin-2-yl)thiazol-4-yl)cyclohexane-carboxamide], the IC50 at human cathepsin F is ≥ 10000 nM; at human cathepsin K it was 46.4 nM.

Turning to `COc1ccc(-c2nc([C@@H]3CCCC[C@H]3C(=O)NC3(C#N)CC3)c(-c3ccc(N4CCS(=O)(=O)CC4)cc3)s2)cc1` [Example 51, (1R,2R)-N-(1-cyanocyclopropyl)-2-(5-(4-(1,1-dioxidothiomorpho-lino)phenyl)-2-(4-methoxyphenyl)thi-azol-4-yl)cyclohexane-carboxamide], the IC50 on human cathepsin F stood at 1110 nM; on human cathepsin K, 1.8 nM.

With `N#CC1(NC(=O)[C@@H]2CCCC[C@H]2c2nc(-c3cncc(C(F)(F)F)c3)sc2-c2ccc(N3CCS(=O)(=O)CC3)cc2)CC1` [Example 88, (1R,2R)-N-(1-cyanocyclopropyl)-2-(5-(4-(1,1-dioxidothiomorpho-lino)phenyl)-2-(5-(trifluoromethyl)pyridin-3-yl)thiazol-4-yl)cyclohexane-carboxamide], the IC50 is 1400 nM at human cathepsin F and 1.5 nM at human cathepsin K.

Turning to `N#CC1(NC(=O)[C@@H]2CCCC[C@H]2c2nc(-c3cccc(C(F)(F)F)n3)sc2-c2ccc(N3CCS(=O)(=O)CC3)cc2)CC1` [Example 132, (1R,2R)-N-(1-cyanocyclopropyl)-2-(5-(4-(1,1-dioxidothiomorpho-lino)phenyl)-2-(6-(trifluoromethyl)pyridin-2-yl)thiazol-4-yl)cyclohexane-carboxamide], the results for the IC50 on human cathepsin F and on human cathepsin K were 2340 nM and 1.8 nM, respectively.

As to `N#CC1(NC(=O)[C@@H]2C[C@@H](F)CC[C@H]2c2nc(-c3ccc(F)cn3)sc2-c2ccc(N3CCS(=O)(=O)CC3)cc2)CC1` [Example 69, (1R,2R,5S)-N-(1-cyanocyclopropyl)-2-(5-(4-(1,1-dioxidothiomorpho-lino)phenyl)-2-(5-fluoropyridin-2-yl)thiazol-4-yl)-5-fluorocyclohexane-carboxamide], the figures for the IC50 at human cathepsin F and at human cathepsin K were 2600 nM and 1.2 nM, respectively.

`N#CC1(NC(=O)[C@@H]2C[C@@H](F)CC[C@H]2c2nc(N3CCOCC3)sc2-c2ccc(N3CCS(=O)(=O)CC3)cc2)CC1` [Example 116, (1R,2R,5S)-N-(1-cyanocyclopropyl)-2-(5-(4-(1,1-dioxidothiomorpho-lino)phenyl)-2-morpholinothiazol-4-yl)-5-fluorocyclohexane-carboxamide]: the IC50 at human cathepsin F stood at 1000 nM; on human cathepsin K, 2.4 nM.

`N#CC1(NC(=O)[C@@H]2CCCC[C@H]2c2nc(-c3cncc(Cl)c3)sc2-c2ccc(N3CCS(=O)(=O)CC3)cc2)CC1` [Example 48, (1R,2R)-2-(2-(5-chloropyridin-3-yl)-5-(4-(1,1-dioxidothiomorpho-lino)phenyl)thiazol-4-yl)-N-(1-cyanocyclopropyl) cyclohexanecarbox-amide]: the IC50 at human cathepsin F amounted to 650 nM; at human cathepsin K, 0.8 nM.

Consider `Cc1nc([C@@H]2CC[C@H](F)C[C@H]2C(=O)NC2(C#N)CC2)c(-c2ccc(N3CCC(C)(O)CC3)cc2)s1` [Example 242, (1R,2R,5S)-N-(1-cyanocyclopropyl)-5-fluoro-2-(5-(4-(4-hydroxy-4-methylpiperidin-1-yl)phenyl)-2-methylthiazol-4-yl)cyclohexane-carboxamide], for which the IC50 is ≥ 10000 nM on human cathepsin F and 26.3 nM on human cathepsin K.

The values are drawn from patent US9573913B2, “Cathepsin cysteine protease inhibitors” (Merck Sharp & Dohme Corp., priority 2013, dated 2017).
